Key:
Format in all cases: in vivo
[1] = tested on: hypotension induced by substance P; assay: Antagonism of hypotension induced by substance P (Maggi et al.); conditions: Cavia porcellus, iv; guinea-pig; hypotension induced by i.v. injection of 250 ng/kg of substance P; read-out: ED50, dose which reduces by 50% the hypotension
Description: Injection of substance P into the animal causes hypotension. The products studied by the technique of C. A. Maggi et al., J. Auton. Pharmac., 7, 11-32 (1987) show an antagonistic effect with respect to this hypotension in the guinea-pig. The ED50, the dose which reduces by 50% the hypotension induced by an i.v. injection of 250 ng/kg of substance P, is determined.

[2] = tested on: increase in capillary permeability caused by septide (agonist of substance P); assay: Inhibition of the increase in capillary permeability caused by septide (Saria et al., adapted for the guinea-pig); conditions: Cavia porcellus
Description: Study of certain isoindole derivatives of the general formula (IV) by the technique of A. Saria et al., Arch.

[3] = tested on: bronchospasm induced by [Pro^9 ] substance P; assay: Inhibition of bronchospasm induced by [Pro9] substance P (Konzett and Rossler); conditions: Cavia porcellus, iv; guinea-pig; bronchospasm induced by 3 μg/kg i.v. of [Pro9] substance P; read-out: ED50, dose which reduces by 50% the bronchospasm
Description: Injection of substance P causes a bronchospasm in the animal. The bronchoconstriction induced in vivo in the guinea-pig by injection of substance P or of a selective agonist of substance P: [Pro^9 ] substance P is studied by the technique of H. Konzett and R. Rosseler, Archiv. Exp. Path. Pharmak., 195, 71-74 (1940). This bronchoconstriction is inhibited by injection of a product of the general formula (IV), which is evidence of an antiasthmatic activity. The ED50, the dose which reduces by 50 % the bronospasm induced by 3 μg/kg i.v. of [Pro^9 ] substance P, is determined. In this technique, the ED50 of the product of Use Example 1 is 0.7 mg/kg i.v.

COc1ccccc1[C@H](C)C(=O)N1C[C@@H]2[C@H](C1)C(c1ccccc1)(c1ccccc1)CC[C@@]2(O)c1ccccc1OC [Use Example 1, (3aS,4S,7aS)-7,7-diphenyl-4-(2-methoxyphenyl)-2-[2-(2-methoxyphenyl)-(S)-propionyl]-perhydroisoindol-4-ol]
ED50 [1]: 0.15 mg/kg
ED50 ([2]; iv): 0.04 mg/kg
ED50 ([2]; po): 3.5 mg/kg
ED50 [3]: 0.7 mg/kg
